US9630956B2, “Compounds useful as inhibitors of ATR kinase” (Vertex Pharmaceuticals Incorporated, priority 2010, dated 2017)

Experiments:
[1] = system: HCT116 colorectal cancer cells; assay: Cisplatin Sensitization Assay (96h cell viability MTS); assay type: cell-based; conditions: concentration of compound required to reduce the IC50 of Cisplatin alone by at least 3-fold, 96h MTS
Procedure: Compounds can be screened for their ability to sensitize HCT116 colorectal cancer cells to Cisplatin using a 96h cell viability (MTS) assay. […] Compounds and Cisplatin are then both added simultaneously to the cell media in 2-fold serial dilutions from a top final concentration of 10 μM as a full matrix of concentrations in a final cell volume of 200 μl, and the cells are then incubated at 37° C. in 5% CO2. After 96h, 40 μl of […] (Promega G358a) is added to each well and the cells are incubated for 1 h at 37° C. in 5% CO2.

full-length ATR = full-length ATR (Homo sapiens (Human), UniProt Q13535); assay: ATR Inhibition Assay (radioactive-phosphate incorporation); assay type: biochemical; conditions: ATR Inhibition Ki(app); 10 μM ATP, 800 μM target peptide, 5 nM full-length ATR, 25° C.
Sequence of full-length ATR (Q13535 whole entry): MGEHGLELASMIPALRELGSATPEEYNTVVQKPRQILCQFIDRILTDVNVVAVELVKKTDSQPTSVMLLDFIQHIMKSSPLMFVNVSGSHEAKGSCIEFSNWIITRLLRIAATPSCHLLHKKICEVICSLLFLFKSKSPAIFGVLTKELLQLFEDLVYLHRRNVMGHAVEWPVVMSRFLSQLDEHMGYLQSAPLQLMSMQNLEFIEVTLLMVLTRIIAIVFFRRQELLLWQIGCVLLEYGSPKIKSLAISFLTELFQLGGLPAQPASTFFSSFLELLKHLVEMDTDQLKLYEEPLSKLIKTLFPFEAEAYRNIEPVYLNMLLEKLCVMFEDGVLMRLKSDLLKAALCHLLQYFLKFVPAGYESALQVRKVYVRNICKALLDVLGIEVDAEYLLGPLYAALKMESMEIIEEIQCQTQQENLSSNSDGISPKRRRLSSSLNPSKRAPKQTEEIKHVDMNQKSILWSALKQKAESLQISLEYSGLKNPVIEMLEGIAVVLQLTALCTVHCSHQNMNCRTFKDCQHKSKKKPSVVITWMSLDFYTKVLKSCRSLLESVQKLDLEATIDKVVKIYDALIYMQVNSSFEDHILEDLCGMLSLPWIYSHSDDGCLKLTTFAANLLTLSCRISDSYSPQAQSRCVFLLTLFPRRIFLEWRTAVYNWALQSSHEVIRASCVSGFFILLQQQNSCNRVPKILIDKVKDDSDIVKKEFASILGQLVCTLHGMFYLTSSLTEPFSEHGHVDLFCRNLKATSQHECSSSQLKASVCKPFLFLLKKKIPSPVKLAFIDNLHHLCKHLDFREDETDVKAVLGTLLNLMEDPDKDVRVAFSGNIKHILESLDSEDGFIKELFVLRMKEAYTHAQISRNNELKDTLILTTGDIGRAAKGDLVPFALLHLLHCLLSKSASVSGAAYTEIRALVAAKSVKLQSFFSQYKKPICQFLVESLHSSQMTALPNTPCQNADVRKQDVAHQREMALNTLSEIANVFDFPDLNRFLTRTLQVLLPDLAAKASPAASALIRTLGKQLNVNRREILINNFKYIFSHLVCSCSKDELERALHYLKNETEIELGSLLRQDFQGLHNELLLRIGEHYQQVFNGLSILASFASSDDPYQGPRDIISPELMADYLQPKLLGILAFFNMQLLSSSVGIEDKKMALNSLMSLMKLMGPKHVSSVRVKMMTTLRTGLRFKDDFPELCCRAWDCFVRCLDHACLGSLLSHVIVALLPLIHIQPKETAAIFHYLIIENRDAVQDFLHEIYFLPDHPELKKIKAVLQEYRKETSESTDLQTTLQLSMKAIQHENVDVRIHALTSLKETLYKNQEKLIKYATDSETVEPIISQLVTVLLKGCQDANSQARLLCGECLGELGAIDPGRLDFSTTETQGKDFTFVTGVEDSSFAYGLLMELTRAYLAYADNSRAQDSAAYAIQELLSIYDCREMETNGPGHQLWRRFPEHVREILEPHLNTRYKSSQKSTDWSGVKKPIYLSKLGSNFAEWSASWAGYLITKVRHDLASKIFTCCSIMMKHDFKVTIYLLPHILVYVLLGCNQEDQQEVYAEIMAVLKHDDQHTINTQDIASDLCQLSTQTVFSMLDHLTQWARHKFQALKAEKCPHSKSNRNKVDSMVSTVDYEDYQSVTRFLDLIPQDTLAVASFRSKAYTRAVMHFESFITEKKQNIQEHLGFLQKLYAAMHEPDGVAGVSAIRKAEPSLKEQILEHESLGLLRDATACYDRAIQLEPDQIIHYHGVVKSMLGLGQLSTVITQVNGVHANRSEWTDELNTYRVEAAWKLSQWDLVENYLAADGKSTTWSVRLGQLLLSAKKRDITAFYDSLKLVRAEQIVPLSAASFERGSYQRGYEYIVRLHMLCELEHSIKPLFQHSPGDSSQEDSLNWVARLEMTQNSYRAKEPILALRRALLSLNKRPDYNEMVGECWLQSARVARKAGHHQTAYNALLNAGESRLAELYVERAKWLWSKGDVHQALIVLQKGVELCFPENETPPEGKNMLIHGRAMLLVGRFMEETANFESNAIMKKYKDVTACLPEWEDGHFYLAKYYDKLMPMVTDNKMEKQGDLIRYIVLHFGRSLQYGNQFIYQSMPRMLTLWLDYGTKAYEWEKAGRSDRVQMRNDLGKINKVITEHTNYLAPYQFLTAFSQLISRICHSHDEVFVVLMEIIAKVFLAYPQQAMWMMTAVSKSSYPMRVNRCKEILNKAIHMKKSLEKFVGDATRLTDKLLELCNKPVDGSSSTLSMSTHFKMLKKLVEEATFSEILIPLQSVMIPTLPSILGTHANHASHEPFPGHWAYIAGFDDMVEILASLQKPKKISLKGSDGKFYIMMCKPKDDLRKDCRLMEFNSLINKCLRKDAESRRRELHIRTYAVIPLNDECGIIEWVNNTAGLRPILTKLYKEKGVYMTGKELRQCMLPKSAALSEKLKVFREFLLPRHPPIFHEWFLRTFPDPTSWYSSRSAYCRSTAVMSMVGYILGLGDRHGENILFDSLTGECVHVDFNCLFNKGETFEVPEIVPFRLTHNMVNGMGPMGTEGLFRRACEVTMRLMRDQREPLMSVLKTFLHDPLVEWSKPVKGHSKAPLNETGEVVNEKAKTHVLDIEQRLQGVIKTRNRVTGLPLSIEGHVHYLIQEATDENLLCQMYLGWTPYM
Procedure: Compounds were screened for their ability to inhibit ATR kinase using a radioactive-phosphate incorporation assay. Assays were carried out in a mixture of 50 mM Tris/HCl (pH 7.5), 10 mM MgCl2 and 1 mM DTT. Final substrate concentrations were 10 μM [γ-33P]ATP (3 mCi 33P ATP/mmol ATP, Perkin Elmer) and 800 μM target peptide ([…]).
Assays were carried out at 25° C. in the presence of 5 nM full-length ATR. An assay stock buffer solution was prepared containing all of the reagents listed above, with the exception of ATP and the test compound of interest. 13.5 μL of the stock solution was placed in a 96 well plate followed by addition of 2 μL of DMSO stock containing serial dilutions of the test compound (typically starting from a final concentration of 15 μM with 3-fold serial dilutions) in duplicate (final DMSO concentration 7%). The plate was pre-incubated for 10 minutes at 25° C. and the reaction initiated by addition of 15 μL [γ-33P]ATP (final concentration 10 μM).
The reaction was stopped after 24 hours by the addition of 30 μL 0.1 M phosphoric acid containing 2 mM ATP. A multiscreen phosphocellulose filter 96-well plate (Millipore, Cat no. MAPHNOB50) was pretreated with 100 μL 0.2M phosphoric acid prior to the addition of 45 μL of the stopped assay mixture. The plate was washed with 5×200 μL 0.2M phosphoric acid. After drying, 100 μL Optiphase ‘SuperMix’ liquid scintillation cocktail (Perkin Elmer) was added to the well prior to scintillation counting (1450 Microbeta Liquid Scintillation Counter, Wallac).
After removing mean background values for all of the data points, Ki(app) data were calculated from non-linear regression analysis of the initial rate data using the Prism software package (GraphPad Prism version 3.0cx for Macintosh, GraphPad Software, San Diego Calif., USA).
Below is a chart showing the ATR Inhibition Ki values of compounds of the disclosure.

Structure (SMILES) | CP3 shift [1] [µM] | Ki (full-length ATR) [nM]
CNCc1ccc(-c2cc(-c3nc(-c4ccc(=O)n(CC5CC5)c4)cnc3N)on2)cc1 [Compound I-62] | 0.078 | ≤ 5
CCNCc1ccc(-c2cc(-c3nc(-c4ccc(=O)n(C(C)C)c4)cnc3N)on2)cc1 [Compound I-63] | 0.156 | ≤ 5
CNCc1ccc(-c2cc(-c3nc(-c4ccc(=O)n(C(C)C)c4)cnc3N)on2)c(OC)c1 [Compound I-64] | 0.078 | ≤ 5
CNCc1ccc(-c2cc(-c3nc(-c4ccc(=O)n(CC5(C)CC5)c4)cnc3N)on2)cc1 [Compound I-68] | 0.039 | ≤ 5
CNCc1ccc(-c2cc(-c3nc(-c4ccc(=O)n(CC5CC5C)c4)cnc3N)on2)cc1 (stereo not drawn) [Compound I-72] | 0.078 | ≤ 5
CNCc1ccc(-c2cc(-c3nc(-c4ccc(=O)n(CCC#N)c4)cnc3N)on2)cc1 [Compound I-73] | 0.156 | ≤ 5
CCC(Cn1cc(-c2cnc(N)c(-c3cc(-c4ccc(CNC)cc4)no3)n2)ccc1=O)OC (stereo not drawn) [Compound I-74] | 0.078 | ≤ 5
CC[C@H](C)CCn1cc(-c2cnc(N)c(-c3cc(-c4ccc(CNC)cc4)no3)n2)ccc1=O [Compound I-77] | 0.039 | ≤ 5
CNCc1ccc(-c2cc(-c3nc(-c4c[nH]c(=O)c(Br)c4)cnc3N)on2)cc1 [Compound I-78] | 0.625 | ≤ 5
CNCc1ccc(-c2cc(-c3nc(-c4ccc(=O)n(CC5(CO)CC5)c4)cnc3N)on2)cc1 [Compound I-80] | 0.078 | ≤ 5
CCn1cc(-c2cnc(N)c(-c3cc(-c4ccc(CNC)cc4)no3)n2)ccc1=O [Compound I-81] | 0.156 | ≤ 5
CCC(C)n1cc(-c2cnc(N)c(-c3cc(-c4ccc(CNC)cc4)no3)n2)ccc1=O (stereo not drawn) [Compound I-82] | 0.079 | ≤ 5
CCC(CC)n1cc(-c2cnc(N)c(-c3cc(-c4ccc(CNC)cc4)no3)n2)ccc1=O [Compound I-83] | 0.02 | ≤ 5
CNCc1ccc(-c2cc(-c3nc(-c4ccc(=O)n(CC5CCCCO5)c4)cnc3N)on2)cc1 (stereo not drawn) [Compound I-87] | 0.078 | ≤ 5
CCc1cc(-c2cnc(N)c(-c3cc(-c4ccc(CNC)cc4)no3)n2)c[nH]c1=O [Compound I-89] | 0.312 | ≤ 5
CNCc1ccc(-c2cc(-c3nc(-c4c[nH]c(=O)c(Cl)c4)cnc3N)on2)cc1 [Compound I-90] | 0.625 | ≤ 5
Nc1ncc(-c2ccc(=O)n(C3CCCC3)c2)nc1-c1cc(-c2ccc(CNC3CC3)cc2)no1 [Compound I-92] | 0.078 | ≤ 5
CCC(CC)n1cc(-c2cnc(N)c(-c3cc(-c4ccc(CNC5CC5)cc4)no3)n2)ccc1=O [Compound I-93] | 0.02 | ≤ 5
CCC(CC)n1cc(-c2cnc(N)c(-c3cc(-c4cccc(C(C)N)c4)no3)n2)ccc1=O (stereo not drawn) [Compound I-94] | 0.007 | ≤ 5
CNCc1ccc(-c2cc(-c3nc(-c4ccc(=O)n(CCC5CC5)c4)cnc3N)on2)cc1 [Compound I-96] | 0.078 | ≤ 5
CC[C@H](C)Cn1cc(-c2cnc(N)c(-c3cc(-c4ccc(CNC)cc4)no3)n2)ccc1=O [Compound I-97] | 0.078 | ≤ 5
CNCc1ccc(-c2cc(-c3nc(-c4ccc(=O)n(C(C)C(=O)N5CCCC5)c4)cnc3N)on2)cc1 (stereo not drawn) [Compound I-102] | 0.078 | ≤ 5
CC(N)c1cccc(-c2cc(-c3nc(-c4ccc(=O)n(CC5(C)CC5)c4)cnc3N)on2)c1 (stereo not drawn) [Compound I-105] | 0.02 | ≤ 5

Structure (SMILES) | CP3 shift [1] [µM] | Ki (full-length ATR) [nM]
CC(N)c1cccc(-c2cc(-c3nc(-c4ccc(=O)n(CC5CC5C)c4)cnc3N)on2)c1 (stereo not drawn) [Compound I-106] | 0.039 | ≤ 5
CNCc1ccc(-c2cc(-c3nc(-c4c[nH]c(=O)c(C5CCCC5)c4)cnc3N)on2)cc1 [Compound I-107] | 0.039 | ≤ 5
CCCC(CC)c1cc(-c2cnc(N)c(-c3cc(-c4ccc(CNC)cc4)no3)n2)c[nH]c1=O (stereo not drawn) [Compound I-116] | 0.02 | ≤ 5
Nc1ncc(-c2c[nH]c(=O)c(C3CCCC3)c2)nc1-c1cc(-c2ccc(CNC3CC3)cc2)no1 [Compound I-119] | 0.156 | ≤ 5
CCCC(CC)c1cc(-c2cnc(N)c(-c3cc(-c4ccc(CNC5CC5)cc4)no3)n2)c[nH]c1=O (stereo not drawn) [Compound I-120] | 0.078 | ≤ 5
CNCc1ccc(-c2cc(-c3nc(-c4ccc(=O)n(CCC5CCCC5)c4)cnc3N)on2)cc1 [Compound I-122] | 0.078 | ≤ 5
CNCc1ccc(-c2cc(-c3nc(-c4c[nH]c(=O)c(-c5ccccc5)c4)cnc3N)on2)cc1 [Compound I-123] | 0.078 | ≤ 5
CC1CCC(n2cc(-c3cnc(N)c(-c4cc(-c5cccc(C(C)N)c5)no4)n3)ccc2=O)C1 (stereo not drawn) [Compound I-124] | 0.039 | ≤ 5
CNCc1ccc(-c2cc(-c3nc(-c4ccc(=O)n(C(C)(C)C#N)c4)cnc3N)on2)cc1 [Compound I-125] | 0.015 | ≤ 5
CCC(CC)n1cc(-c2cnc(N)c(-c3cc(-c4ccc(CNCCF)cc4)no3)n2)ccc1=O [Compound I-126] | 0.625 | ≤ 5
CCC(CC)n1cc(-c2cnc(N)c(-c3cc(-c4ccc(CNC5CC(F)(F)C5)cc4)no3)n2)ccc1=O [Compound I-127] | 0.312 | ≤ 5
CCC(CC)n1cc(-c2cnc(N)c(-c3cc(-c4ccc(CNC5CC5)cc4F)no3)n2)ccc1=O [Compound I-128] | 0.078 | ≤ 5
CCC(CC)n1cc(-c2cnc(N)c(-c3cc(-c4ccc(CNC)cc4F)no3)n2)ccc1=O [Compound I-129] | 0.02 | ≤ 5
CCC(CC)n1cc(-c2cnc(N)c(-c3cc(-c4ccc(CN[C@@H]5CCC(F)C5)cc4)no3)n2)ccc1=O (stereo partly drawn) [Compound I-130] | 0.078 | ≤ 5
CCC(CC)n1cc(-c2cnc(N)c(-c3cc(-c4cccc(C(N)CF)c4)no3)n2)ccc1=O (stereo not drawn) [Compound I-131] | 0.02 | ≤ 5
CCC(CC)c1cc(-c2cnc(N)c(-c3cc(-c4ccc(CNC)cc4F)no3)n2)c[nH]c1=O [Compound I-132] | 0.01 | ≤ 5
CCC(N)c1cccc(-c2cc(-c3nc(-c4ccc(=O)n(C(CC)CC)c4)cnc3N)on2)c1 (stereo not drawn) [Compound I-133] | 0.039 | ≤ 5
CCC(C#N)(CC)n1cc(-c2cnc(N)c(-c3cc(-c4ccc(CNC)cc4)no3)n2)ccc1=O [Compound I-134] | 0.02 | ≤ 5
CCC(C#N)(CC)n1cc(-c2cnc(N)c(-c3cc(-c4cccc([C@@H](C)N)c4)no3)n2)ccc1=O [Compound I-138] | 0.01 | ≤ 5
CCC(CC)n1cc(-c2cnc(N)c(-c3cc(-c4ccc(CNC5(C)CC5)cc4)no3)n2)ccc1=O [Compound I-140] | 0.156 | ≤ 5
CNCc1ccc(-c2cc(-c3nc(-c4ccc(=O)n(C5(C#N)CCCC5)c4)cnc3N)on2)cc1 [Compound I-143] | 0.01 | ≤ 5
CC(C)(C#N)n1cc(-c2cnc(N)c(-c3cc(-c4ccc(CNC5CCOC5)cc4)no3)n2)ccc1=O (stereo not drawn) [Compound I-145] | 0.01 | ≤ 5
